The target of test [1] is T1, α1-tubulin (ChET) (Gallus gallus, UniProt P02552).
T1 construct: gene TUBA1A; native α1/β1-tubulin from chicken erythrocytes, Cp-52 C8 ring; with β1-tubulin (TUBB1, P09207)
Description: cryo-EM structure ([…] Å). In kind it is binding.

Test [2] relates to T2, HeLa cell line tubulin (HeLaT), αβ-tubulin heterodimer.
T2 construct: native αβ-tubulin purified from cultured HeLa cells (isotype mixture); with α1B-tubulin
Nature of the test: mass photometry of ring assembly (Kd-app). The test is classed as binding.

In test [3] the target is T3, blood cell-specific α1/β1-tubulin (ChET), β1-tubulin (Gallus gallus, UniProt P02552+P09207).
T3 construct: gene TUBA1A; native α1/β1-tubulin purified from the marginal band of chicken erythrocytes; with α1-tubulin (TUBA1A, P02552)
T3 sequence (P02552 whole entry): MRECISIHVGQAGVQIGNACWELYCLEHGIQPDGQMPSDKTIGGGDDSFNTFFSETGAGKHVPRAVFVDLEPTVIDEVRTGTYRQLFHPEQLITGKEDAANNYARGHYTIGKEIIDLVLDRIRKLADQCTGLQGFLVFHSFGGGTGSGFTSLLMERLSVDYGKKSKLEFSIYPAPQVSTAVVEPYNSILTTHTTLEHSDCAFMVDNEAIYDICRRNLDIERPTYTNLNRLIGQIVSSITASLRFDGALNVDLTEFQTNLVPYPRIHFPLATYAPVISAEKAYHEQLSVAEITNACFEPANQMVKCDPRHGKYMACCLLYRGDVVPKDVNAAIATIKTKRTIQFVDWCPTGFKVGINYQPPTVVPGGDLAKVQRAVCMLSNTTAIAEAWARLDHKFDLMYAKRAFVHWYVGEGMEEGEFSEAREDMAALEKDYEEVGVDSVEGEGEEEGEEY
T3 sequence (P09207 whole entry): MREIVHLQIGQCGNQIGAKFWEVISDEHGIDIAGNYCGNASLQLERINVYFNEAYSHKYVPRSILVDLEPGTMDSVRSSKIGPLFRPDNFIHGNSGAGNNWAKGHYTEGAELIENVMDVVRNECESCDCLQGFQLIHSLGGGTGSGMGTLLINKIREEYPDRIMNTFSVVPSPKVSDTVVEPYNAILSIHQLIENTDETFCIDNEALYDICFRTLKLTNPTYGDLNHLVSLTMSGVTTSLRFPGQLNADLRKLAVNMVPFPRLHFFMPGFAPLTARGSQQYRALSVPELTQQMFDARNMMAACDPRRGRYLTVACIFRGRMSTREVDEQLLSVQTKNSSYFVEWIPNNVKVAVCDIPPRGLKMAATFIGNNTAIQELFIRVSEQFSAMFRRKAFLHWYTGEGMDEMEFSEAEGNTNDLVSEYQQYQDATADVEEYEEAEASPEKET
Nature of the test: ([…] Å, C8 ring); mass photometry Kd-app. In kind it is binding.

For test [4], the target named is T4, bovine brain tubulin (BBT), αβ-tubulin heterodimer.
T4 construct: native bovine brain αβ-tubulin (isotype mixture, PurSolutions)
Description: mass photometry of ring assembly (Kd-app). In kind it is binding, Bos taurus.

T1 sequence (P02552 whole entry): as the sequence (P02552 whole entry) above
T1 sequence (P09207 whole entry partner): as the sequence (P09207 whole entry) above

With `Nc1nc2c(ncn2[C@@H]2O[C@H](COP(=O)(O)OP(=O)(O)OP(=O)(O)O)[C@@H](O)[C@H]2O)c(=O)[nH]1` [GTP], the “cryo-EM structure (3.2 Å)” value in test [1] is “comprises one copy of α1-tubulin with its bound GTP”.
On to `COc1ccc(C[C@H]2NC(=O)/C=C/C[C@@H]([C@H](C)[C@H]3O[C@@H]3c3ccccc3)OC(=O)[C@H](CC(C)C)OC(=O)C(C)(C)CNC2=O)cc1Cl` [Cp-52, cryptophycin-52], for which the Kd amounted to 0.025 ± 0.007 µM in test [2], 0.065 ± 0.017 µM in test [3] and 0.172 ± 0.036 µM in test [4].

The values are drawn from publication PMC11791314 (The Journal of Biological Chemistry, 2024).
